Laboratory results published in patent US20040087642A1, “Methods of using and compositions comprising a JNK inhibitor for the treatment, prevention, management and/or modification of pain” (priority 2002, published 2004).

Tests used:
[1] = tested on: rat ventral mesencephalan dopaminergic neurons; assay: [3H]Dopamine Cell Culture Assay (6-OHDA neurotoxicity); type: cell-based; conditions: 6-OHDA 30 μM, uptake 22 hrs after exposure
Experimental: Cultures of dopaminergic neurons were prepared according to a modification of the procedure described by Raymon and Leslie (J. Neurochem. 62:1015-1024, 1994). Time-mated pregnant rats were sacrificed on embyronic day 14-15 (crown rump length 11-12 mm) and the embryos removed by cesarean section. The ventral mesencephalon, containing the dopaminergic neurons, was dissected from each embryo. Tissue pieces from approximately 48 embryos were pooled and dissociated both enzymatically and mechanically. An aliquot from the resulting cell suspension was counted and the cells were plated in high glucose DMEM/F12 culture medium with 10% fetal bovine serum at a density of 1×10^5 cells/well of a Biocoat poly-D-lysine-coated 96-well plate. The day following plating was considered 1 day in vitro (DUV). Cells were maintained in a stable environment at 37° C., 95% humidity, and 5% CO2. A partial medium change was performed at 3 DIV. […]
[^3H]Dopamine uptake is used as a measure of the health and integrity of dopaminergic neurons in culture (Prochiantz et al., PNAS 76: 5387-5391, 1979). […] Briefly, cells treated with 6-OHDA in the presence and absence of 5-amino-anthra(9,1-cd)isothiazol-6-one were assessed in the uptake assay 22 hrs after exposure to 6-OHDA. […] Radioactivity was removed and the cultures were washed 3× with ice cold PBS. […]

[2] = Brain-Blood Plasma Distribution In Vivo; parameters: species or system Sprague-Dawley rats; conditions: rat
Experimental: 5-Amino-anthra(9,1-cd)isothiazol-6-one was administered intravenously (10 mg/kg) into the veins of Sprague-Dawley rats. After 2 hr, blood samples were obtained from the animals and their vascular systems were perfused with approximately 100 mL of saline to rid their brains of blood. The brains were removed from the animals, weighed, and homogenized in a 50 mL conical tube containing 10 equivalents (w/v) of methanol/saline (1:1) using a Tissue Tearer (Fischer Scientific). The homogenized material was extracted by adding 600 μL of cold methanol to 250 μL of brain homogenate vortexed for 30 sec and subjected to centrifugation for 5 min. After centrifugation, 600 μL of the resulting supernatant was transferred to a clean tube and evaporated at room temperature under reduced pressure to provide a pellet. […] The brain homogenate analysis samples, plasma analysis samples, and standard analysis samples were analyzed and compared using HPLC by injecting 100 μL of a sample onto a 5 μm C-18 Luna column (4.6 mm×150 mm, commercially available from Phenomenex of Torrance, Calif.) and eluting at 1 mL/min with a linear gradient of 30% aqueous acetonitrile containing 0.1% trifluoroacetic acid to 90% aqueous acetonitrile containing 0.1% trifluoroacetic acid over 8 minutes and holding at 90% aqueous acetonitrile containing 0.1% trifluoroacetic acid for 3 min. with absorbance detection at 450 nm. […]

[3] = Solubility in aqueous media; type: physicochemical

SMILES: Nc1ccc2snc3c2c1C(=O)c1ccccc1-3 [5-amino-anthra(9,1-cd)isothiazol-6-one]
- protection of dopaminergic neurons ([3H]dopamine uptake) [1]: protects rat ventral mesencephalan neurons from the toxic effects of 6-OHDA
- brain-drug concentration ([2]; 10 mg/kg intravenously, 2 hr post-dose): approximately 65 nmole/g
- blood-brain barrier crossing ([2]; following intravenous administration): crosses the blood-brain barrier to a significant extent
- solubility in aqueous media [3]: limited solubility
